Several values for one entry are separate records, joined by “and”; a condition that tells them apart may be missing. Identical values can stand only once. Toxic doses and inconclusive results are not listed. Rule as the data show it: active = T/C of 150% or more; inactive = T/C below 125%.
Tested on: L1210 leukemia ip in BDF1 mice, survival T/C
Assay: NCI In Vivo Anticancer Drug Screen. Data for tumor model L1210 Leukemia (intraperitoneal) in B6D2F1 (BDF1) mice
Conditions: endpoint: mean survival time, higher = longer survival
In short: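 Value reflects the ratio of survival in compound-treated mice to survival in vehicle-treated controls, with both groups carrying the same transplanted tumor.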

[1] = dose: 100.0 mg/kg/injection, schedule: Q04DX002 (ip), vehicle: Klucel (hydroxypropylcellulose) (HPC)
[2] = dose: 200.0 mg/kg/injection, schedule: Q04DX002 (ip), vehicle: Klucel (hydroxypropylcellulose) (HPC)
[3] = dose: 400.0 mg/kg/injection, schedule: Q04DX002 (ip), vehicle: Klucel (hydroxypropylcellulose) (HPC)
[4] = dose: 100.0 mg/kg/injection, schedule: Q01DX009 (ip), vehicle: Klucel (hydroxypropylcellulose) (HPC)
[5] = dose: 200.0 mg/kg/injection, schedule: Q01DX009 (ip), vehicle: Klucel (hydroxypropylcellulose) (HPC)
[6] = dose: 400.0 mg/kg/injection, schedule: Q01DX009 (ip), vehicle: Klucel (hydroxypropylcellulose) (HPC)
[7] = dose: 25.0 mg/kg/injection, schedule: Q01DX009 (ip), vehicle: saline with Tween-80
[8] = dose: 50.0 mg/kg/injection, schedule: Q01DX009 (ip), vehicle: saline with Tween-80
[9] = dose: 100.0 mg/kg/injection, schedule: Q01DX009 (ip), vehicle: saline with Tween-80
[10] = dose: 100.0 mg/kg/injection, schedule: Q01DX001 (ip), vehicle: carboxymethylcellulose (CMC)
[11] = dose: 200.0 mg/kg/injection, schedule: Q01DX001 (ip), vehicle: carboxymethylcellulose (CMC)
[12] = dose: 100.0 mg/kg/injection, schedule: Q01DX001 (ip), vehicle: saline
[13] = dose: 200.0 mg/kg/injection, schedule: Q01DX001 (ip), vehicle: saline
[14] = dose: 400.0 mg/kg/injection, schedule: Q01DX001 (ip), vehicle: saline

Measured: T/C

CC12CCC(=O)C=C1CCC1C2C(O)CC2(C)C1CCC2(O)C(=O)CSc1ccc(N(CCCl)CCCl)cc1 (configuration not stated)
inactive: dose: 100.0 mg/kg/injection, schedule: Q01DX001 (sc), vehicle: steriod suspending solution 92 % of control | dose: 200.0 mg/kg/injection, schedule: Q01DX001 (sc), vehicle: steriod suspending solution 100 % of control | dose: 400.0 mg/kg/injection, schedule: Q01DX001 (sc), vehicle: steriod suspending solution 103 % of control

Oc1ccc(C2=NNC(c3ccc(O)cc3)=NN2)cc1
inactive: [1] 105 % of control | [2] 97 % of control | [3] 94 % of control

O=C(Nc1cccc(F)c1)N(CC(O)c1ccccc1)C1CCCCC1 (configuration not stated)
inactive: [4] 114 % of control | [5] 100 % of control | [6] 97 % of control

CC(=O)CC(=O)OCC1COCO1 (configuration not stated)
inactive: dose: 222.0 mg/kg/injection, schedule: Q01DX Z (ip), vehicle: methylcellulose (MC) 104 % of control | dose: 333.0 mg/kg/injection, schedule: Q01DX Z (ip), vehicle: methylcellulose (MC) 95 % of control | dose: 500.0 mg/kg/injection, schedule: Q01DX Z (ip), vehicle: methylcellulose (MC) 107 % of control

CNC(=S)N(C)N=O
inactive: dose: 100.0 mg/kg/injection, schedule: Q01DX Z (ip), vehicle: methylcellulose (MC) 97 % of control | dose: 200.0 mg/kg/injection, schedule: Q01DX Z (ip), vehicle: methylcellulose (MC) 120 % of control

COc1ccc(/C=N/NC(=O)C[n+]2ccccc2)c(OC)c1
inactive: [7] 110 % of control | [8] 101 % of control | [9] 103 % of control | dose: 100.0 mg/kg/injection, schedule: Q04DX003 (ip), vehicle: saline with Tween-80 94 % of control

CN1CCCCC1CCN1c2ccccc2Sc2ccc(Cl)cc21 (configuration not stated)
inactive: dose: 3.12 mg/kg/injection, schedule: Q01DX009 (ip), vehicle: saline 96 % of control | dose: 6.25 mg/kg/injection, schedule: Q01DX009 (ip), vehicle: saline 97 % of control | dose: 12.5 mg/kg/injection, schedule: Q01DX009 (ip), vehicle: saline 100 % of control | dose: 25.0 mg/kg/injection, schedule: Q01DX009 (ip), vehicle: saline 97 % of control

COc1cccc(NC(=O)Nc2ccccc2OC)c1
inactive: [4] 106 % of control | dose: 100.0 mg/kg/injection, schedule: Q04DX003 (ip), vehicle: Klucel (hydroxypropylcellulose) (HPC) 100 % of control | [5] 108 % of control | dose: 200.0 mg/kg/injection, schedule: Q04DX003 (ip), vehicle: Klucel (hydroxypropylcellulose) (HPC) 97 % of control | [6] 103 % of control | dose: 400.0 mg/kg/injection, schedule: Q04DX003 (ip), vehicle: Klucel (hydroxypropylcellulose) (HPC) 100 % of control

COc1ccc([N+](=O)[O-])cc1NC(=O)Nc1cccc(C(F)(F)F)c1
inactive: [1] 96 % of control | [2] 101 % of control | [3] 96 % of control

CCC(CC)(CCN(C)C)c1ccccc1
inactive: dose: 50.0 mg/kg/injection, schedule: Q01DX001 (ip), vehicle: carboxymethylcellulose (CMC) 98 % of control | [10] 98 % of control | [11] 104 % of control

Cc1c(C)n(C2OC(CO)C(O)C2O)c(=O)[nH]c1=O (configuration not stated)
inactive: [12] 96 % of control | [13] 108 % of control | [14] 93 % of control

O=[N+]([O-])c1ccn(O)c(=NC2CCCCC2)c1
inactive: [12] 98 % of control | [13] 93 % of control | [14] 100 % of control

CC(=O)N1c2cc3ccccc3cc2N(C(C)=O)c2cc3ccccc3cc21
inactive: dose: 100.0 mg/kg/injection, schedule: Q01DX001 (ip), vehicle: acetone 92 % of control | [9] 103 % of control | dose: 200.0 mg/kg/injection, schedule: Q01DX001 (ip), vehicle: acetone 90 % of control | dose: 200.0 mg/kg/injection, schedule: Q01DX009 (ip), vehicle: saline with Tween-80 106 % of control | dose: 400.0 mg/kg/injection, schedule: Q01DX001 (ip), vehicle: acetone 88 % of control | dose: 400.0 mg/kg/injection, schedule: Q01DX009 (ip), vehicle: saline with Tween-80 95 % of control

CN(C)N=Nc1ccc2ncccc2c1[N+](=O)[O-]
inactive: dose: 100.0 mg/kg/injection, schedule: Q01DX001 (ip), vehicle: other 105 % of control | dose: 200.0 mg/kg/injection, schedule: Q01DX001 (ip), vehicle: other 103 % of control

CSc1nc(Cl)nc(C(Cl)Cl)c1Cl
inactive: dose: 12.5 mg/kg/injection, schedule: Q01DX009 (ip), vehicle: other 93 % of control | dose: 25.0 mg/kg/injection, schedule: Q01DX009 (ip), vehicle: other 107 % of control | dose: 50.0 mg/kg/injection, schedule: Q01DX009 (ip), vehicle: other 89 % of control and 90 % of control

CC(CC12CC3CC(CC(C3)C1)C2)NN (configuration not stated)
inactive: dose: 25.0 mg/kg/injection, schedule: Q04DX002 (ip), vehicle: Klucel (hydroxypropylcellulose) (HPC) 101 % of control | dose: 50.0 mg/kg/injection, schedule: Q04DX002 (ip), vehicle: Klucel (hydroxypropylcellulose) (HPC) 86 % of control

Cc1nc2ncnc(Cl)c2[nH]1
inactive: [12] 103 % of control | [13] 106 % of control | [14] 100 % of control

CC(=O)CC(=O)Nc1ccc(Cl)cc1
inactive: [1] 105 % of control | dose: 177.0 mg/kg/injection, schedule: Q04DX002 (ip), vehicle: Klucel (hydroxypropylcellulose) (HPC) 102 % of control | [2] 86 % of control | dose: 266.0 mg/kg/injection, schedule: Q04DX002 (ip), vehicle: Klucel (hydroxypropylcellulose) (HPC) 92 % of control | [3] 95 % of control | dose: 600.0 mg/kg/injection, schedule: Q04DX002 (ip), vehicle: Klucel (hydroxypropylcellulose) (HPC) 92 % of control

O=C(O)Cc1ccc2ccccc2c1
inactive: dose: 50.0 mg/kg/injection, schedule: Q01DX001 (ip), vehicle: saline 101 % of control | [12] 103 % of control | [13] 107 % of control | [14] 103 % of control

Cc1ccc(Cl)c(C(=O)C(Br)C(Br)c2ccccc2)c1 (configuration not stated)
inactive: dose: 12.5 mg/kg/injection, schedule: Q01DX009 (ip), vehicle: saline with Tween-80 100 % of control | [7] 100 % of control | [8] 94 % of control and 100 % of control

Cc1ccc2c(c1)C(=O)CCC2
inactive: dose: 177.0 mg/kg/injection, schedule: Q01DX001 (ip), vehicle: saline 94 % of control | [13] 95 % of control | dose: 266.0 mg/kg/injection, schedule: Q01DX001 (ip), vehicle: saline 94 % of control | [14] 94 % of control and 95 % of control | dose: 600.0 mg/kg/injection, schedule: Q01DX001 (ip), vehicle: saline 96 % of control

ClCCN(CCCl)c1ccc(C=Nc2ccc(-c3csc(Cc4ccccc4)n3)c(Cl)c2)cc1
inactive: [10] 93 % of control | [11] 88 % of control | dose: 400.0 mg/kg/injection, schedule: Q01DX001 (ip), vehicle: carboxymethylcellulose (CMC) 87 % of control

Source: PubChem BioAssay AID248 (DTP/NCI, 2004)
